Results on one compound are retold here after patent EP0964681B1, “ANTICONVULSANT DERIVATIVES USEFUL IN TREATING PSORIASIS” (Ortho-McNeil Pharmaceutical, Inc., priority 1996, dated 1998).

One assay has as its system psoriatic lesions. The assay can be described thus: Clinical studies of topiramate in epilepsy; patients who coincidentally had psoriasis. The class given is in vivo, human. As to conditions: reported by at least three epilepsy-trial patients who coincidentally had psoriasis. On the procedure:
The activity of the compounds of formula I in treating psoriasis was first evidenced in clinical studies conducted to evaluate the efficacy of topiramate in treating epilepsy. […] Therefore, preclinical in vitro studies were conducted to evaluate the effects of topiramate on keratinocyte function as a putative mechanism of action for its potential beneficial effects in treating psoriasis. One of the hallmarks of psoriatic lesions is hyperproliferative epidermal keratinocytes. In general, agents that affect the proliferation of keratinocytes have an inverse effect on differentiation, i.e. they would inhibit growth and enhance differentiation. Two measures of keratinocyte function were therefore evaluated: cell growth and differentiation.

The subject of assay [1] is seizures. As to conditions: several rodent models of epilepsy; cited from earlier work.
Assay [2] concerns seizures. The following applies: animal model of kindled epilepsy; cited from earlier work.
Assay [3] relates to keratinocytes. Nature of the assay: Keratinocyte differentiation measured by expression of transglutaminase-1 protein. The class given is cell-based. On the procedure:
In these studies, keratinocytes were grown in Medium154, a low calcium medium supplemented with bovine pituitary extract (BPE), bovine insulin, bovine transferrin, human epidermal growth factor (EGF) and hydrocortisone. Keratinocytes were grown to 60-80% confluence and subcultured by using trypsin/EDTA. The effect of topiramate on keratinocyte differentiation was measured by the expression of transglutaminase-1 protein after three days of treatment. Three separate experiments were performed. Differentiation was evaluated in both low calcium and high calcium incubation conditions. An increase in differentiation would be most readily observed under low calcium conditions whereas an inhibition of differentiation could be detected under conditions of high calcium-induced differentiation. […] A follow-up study was conducted which extended the incubation time to 5 days to look for further enhancement.

Assay [4] concerns simple and complex partial seizures and secondarily generalized seizures. As to conditions: clinical trials; adjunctive therapy or monotherapy; cited from earlier work.
Assay [5] relates to keratinocytes. The assay can be described thus: Keratinocyte cell growth induced by EGF and BPE. It is filed as cell-based. As to conditions: six days of treatment. On the procedure: In these studies, keratinocytes were grown in Medium154, a low calcium medium supplemented with bovine pituitary extract (BPE), bovine insulin, bovine transferrin, human epidermal growth factor (EGF) and hydrocortisone. Keratinocytes were grown to 60-80% confluence and subcultured by using trypsin/EDTA. Four separate experiments were performed to evaluate the dose-dependent effect of topiramate on keratinocyte cell growth as measured by […] after six days of treatment. Topiramate was dissolved in DMSO to make a 100 mM stock solution. In all experiments the final concentration of DMSO in the cell incubation medium was 0.1%. Vehicle controls (0.1% DMSO) were included in each experiment. Cell growth was induced by a combination of the growth factors EGF and BPE.

Where two headings read alike, the source gives them in different places.

`CC1(C)O[C@@H]2[C@@H](CO[C@@]3(COS(N)(=O)=O)OC(C)(C)O[C@@H]23)O1` [topiramate, 2,3:4,5-bis-O-(1-methylethylidene)-β-D-fructopyranose sulfamate]: in the assay with psoriatic lesions, the psoriatic lesions result is “marked reduction in the psoriatic lesions”. Moreover, the block of seizures result in the assay with seizures [1] and in the assay on seizures [2] was “effectively block seizures” each time. Also, the transglutaminase-1 protein entry was “No additional increases” in the assay with keratinocytes [3] (follow-up study, incubation time extended to 5 days); “modest increase” in the assay on keratinocytes [3] (high calcium incubation conditions, three days of treatment); “modest increase” in the assay on keratinocytes [3] (low calcium incubation conditions, three days of treatment). Besides, the “efficacy in treating simple and complex partial seizures and secondarily generalized seizures” value in assay [4] is listed as “effective as adjunctive therapy or as monotherapy”. In addition, the Emax at 10 µM with keratinocytes [5] (Keratinocyte, 144 h, 10 micromolar, growth induced by EGF and BPE, four experiments, not statistically significant (p>0.05), read-out: inhibition of cell growth (maximal response)) is 32 ± 10%. Also, the “dose dependence of the effect on keratinocyte cell growth” value in the assay on keratinocytes [5] (four experiments) is reported as “no dose dependence was observed”. Also, the “effect on keratinocyte cell growth” value in the assay on keratinocytes [5] (growth induced by EGF and BPE, 0.1% DMSO) is “modest inhibitory effect”.
